Reference: patent publication US20110144577A1, “HYDROPHILIC COATINGS WITH TUNABLE COMPOSITION FOR DRUG COATED BALLOON” (priority 2009, published 2011)

Test: Solubility enhancement of zotarolimus with select excipients in PBS
Assay type: physicochemical
Conditions: n = 3
Excerpt: Table 1 provides non-limiting examples of the solubility enhancement provided by excipients that can be used in accordance with the disclosed subject matter: […]

solubility (PBS with 5% w/w PEG 400, aqueous with cosolvent or surfactant or cyclodextrin, PEG 400 5% w/w in PBS): 31.5 ± 3.5 µg/mL
solubility (PBS with 5% w/w PEG-PE, aqueous with cosolvent or surfactant or cyclodextrin, PEG-PE 5% w/w in PBS): 1020 ± 417 µg/mL
solubility (PBS with 5% w/w PVP C-17, aqueous with cosolvent or surfactant or cyclodextrin, PVP C-17 5% w/w in PBS): 5.6 ± 1.6 µg/mL
solubility (PBS with 5% w/w Tween 20, aqueous with cosolvent or surfactant or cyclodextrin, Tween 20 5% w/w in PBS): 732 ± 94.7 µg/mL
solubility (PBS with 5% w/w Vitamin E TPGS, aqueous with cosolvent or surfactant or cyclodextrin, Vitamin E TPGS 5% w/w in PBS): 512 ± 49.5 µg/mL
solubility (PBS with 5% w/w glycerol, aqueous with cosolvent or surfactant or cyclodextrin, Glycerol 5% w/w in PBS): 43.2 ± 30.1 µg/mL
solubility (PBS with 5% w/w hydroxypropyl-β-cyclodextrin, aqueous with cosolvent or surfactant or cyclodextrin, Hydroxypropyl-β-cyclodextrin 5% w/w in PBS): 11.6 ± 3.1 µg/mL
solubility (PBS with 5% γ-cyclodextrin, aqueous with cosolvent or surfactant or cyclodextrin, 5% γ-Cyclodextrin in PBS): 55.3 ± 34.3 µg/mL
Compound: CO[C@H]1C[C@@H]2CC[C@@H](C)[C@@](O)(O2)C(=O)C(=O)N2CCCC[C@H]2C(=O)O[C@H]([C@H](C)C[C@@H]2CC[C@H](n3cnnn3)[C@H](OC)C2)CC(=O)[C@H](C)/C=C(\C)[C@@H](O)[C@@H](OC)C(=O)[C@H](C)C[C@H](C)/C=C/C=C/C=C/1C [Zotarolimus, zotarolimus]
